Columns and labels:
[1] = tested on: IL10 secretion by OCI-LY3 ABC-DLBCL cells; experiment: Human IL10 Mesoscale assay (OCI-LY3); format: cell-based; details: Homo sapiens, 24 h
In short: (§1)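 Compounds tested from 15 μM to 58.6 nM (twofold, 9 concentrations) on 100,000 cells per well over 24 h at 37° C, without beta-mercaptoethanol. Secreted cytokine in supernatant detected by MSD electrochemiluminescence; scaling used DMSO as maximum and RN486 as full inhibition.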

[2] = target: full-length MALT1 protein (Strep-MALT1(1-824)-His) (Homo sapiens (Human), UniProt Q9UDY8); experiment: MALT1 Biochemical Protease Assay (Ac-LRSR-AMC substrate); details: 10 nM FL MALT1, 200 μM Ac-LRSR-AMC, 4 h at RT; read-out: MALT1_Biochemical activity (Ac-LRSR-amc) IC50
In short: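 Fluorescence from AMC release off the quenched LRSR substrate was read after a 4 h reaction at RT. Values were normalised to no-enzyme and uninhibited controls and fitted for IC50 and Hill coefficient.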

[3] = tested on: TMD8 cells; experiment: 4-day proliferation assay, TMD8; format: cell-based; details: Homo sapiens, 96 h, 4 days incubation, CellTiterGLO, read-out: Anti-proliferation: TMD-8 IC50
In short: (§2)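 Each line was plated at 10,000 cells per well for linear growth, with no beta-mercaptoethanol during the assay. OCI-Ly3 cells were below passage 10.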

[4] = tested on: OCI-Ly3 cells; experiment: 4-day proliferation assay, OCI-Ly3; format: cell-based, human; details: Homo sapiens, 96 h, 4 days incubation, CellTiterGLO, read-out: Anti-proliferation: OCI-LY-3 IC50
In short: as §2

[5] = tested on: IL6 secretion by OCI-LY3 ABC-DLBCL cells; experiment: Human IL6 Mesoscale assay (OCI-LY3); format: cell-based; details: Homo sapiens, 24 h
In short: as §1

[6] = tested on: IL10 secretion by TMD8 ABC-DLBCL cells; experiment: Human IL10 Mesoscale assay (TMD-8); format: cell-based; details: Homo sapiens, TMD8; TMD-8 cells, 24 h
In short: as §1

[7] = tested on: IL6 secretion by TMD8 ABC-DLBCL cells; experiment: Human IL6 Mesoscale assay (TMD-8); format: cell-based; details: Homo sapiens, TMD8; TMD-8 cells, 24 h
In short: as §1

full-length MALT1 protein (Strep-MALT1(1-824)-His), sequence (Q9UDY8 whole entry): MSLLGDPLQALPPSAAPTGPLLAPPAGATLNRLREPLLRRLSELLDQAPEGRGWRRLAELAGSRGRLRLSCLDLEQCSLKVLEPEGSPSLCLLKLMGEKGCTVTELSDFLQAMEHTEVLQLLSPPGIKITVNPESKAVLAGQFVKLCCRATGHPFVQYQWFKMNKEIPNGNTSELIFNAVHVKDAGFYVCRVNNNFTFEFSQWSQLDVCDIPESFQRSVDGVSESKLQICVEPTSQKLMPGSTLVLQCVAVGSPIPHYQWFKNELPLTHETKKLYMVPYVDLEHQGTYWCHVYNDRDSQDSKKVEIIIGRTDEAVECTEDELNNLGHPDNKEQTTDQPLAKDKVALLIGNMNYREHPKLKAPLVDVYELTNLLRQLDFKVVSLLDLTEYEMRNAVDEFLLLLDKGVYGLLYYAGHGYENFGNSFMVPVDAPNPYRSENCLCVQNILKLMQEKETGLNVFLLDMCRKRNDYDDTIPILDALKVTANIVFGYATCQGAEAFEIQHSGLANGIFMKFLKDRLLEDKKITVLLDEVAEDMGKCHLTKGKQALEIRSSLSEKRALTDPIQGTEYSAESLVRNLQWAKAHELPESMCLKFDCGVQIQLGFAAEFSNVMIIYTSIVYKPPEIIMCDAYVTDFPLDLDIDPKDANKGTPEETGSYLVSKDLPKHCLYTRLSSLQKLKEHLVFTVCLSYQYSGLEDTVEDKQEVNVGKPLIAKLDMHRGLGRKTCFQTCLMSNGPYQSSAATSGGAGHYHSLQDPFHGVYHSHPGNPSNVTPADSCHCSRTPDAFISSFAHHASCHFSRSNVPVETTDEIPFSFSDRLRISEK

Row | Structure (SMILES) | IC50 [1] [µM] | IC50 [2] [µM] | IC50 [3] [µM] | IC50 [4] [µM] | IC50 [5] [µM] | IC50 [6] [µM] | IC50 [7] [µM]
1 | Nc1ncc(-n2ncc(C(=O)Nc3cnc(-n4nccn4)c(Cl)c3)c2C(F)(F)F)c2cccc(F)c12 [Cpd 110, 1-(1-amino-8-fluoroisoquinolin-4-yl)-N-(5-chloro-6-(2H-1,2,3-triazol-2-yl)pyridin-3-yl)-5-(trifluoromethyl)-1H-pyrazole-4-carboxamide] | 0.024 | 0.019 | 1.45 | 0.22 | 0.025 | – | –
2 | O=C(O)c1cnn(-c2ncc(NC(=O)c3cnn(-c4cccc5ncccc45)c3C(F)(F)F)cc2Cl)n1 [Cpd 109, 2-(3-chloro-5-(1-(quinolin-5-yl)-5-(trifluoromethyl)-1H-pyrazole-4-carboxamido)pyridin-2-yl)-2H-1,2,3-triazole-4-carboxylic acid] | 0.031 | 0.01 | > 20 | > 20 | 0.028 | – | –
3 | Cn1ccc(-c2ncc(NC(=O)c3cnn(-c4cccc5c(=O)[nH]ccc45)c3C(F)(F)F)cc2Cl)n1 [Cpd 157, N-(5-chloro-6-(1-methyl-1H-pyrazol-3-yl)pyridin-3-yl)-1-(1-oxo-1,2-dihydroisoquinolin-5-yl)-5-(trifluoromethyl)-1H-pyrazole-4-carboxamide] | 0.912 | 0.023 | 7.08 | 1.27 | 1.78 | – | –
4 | O=C(Nc1cnc(-c2ncco2)c(Cl)c1)c1cnn(-c2cccc3c(=O)[nH]ccc23)c1C(F)(F)F [Cpd 127, N-(5-chloro-6-(oxazol-2-yl)pyridin-3-yl)-1-(1-oxo-1,2-dihydroisoquinolin-5-yl)-5-(trifluoromethyl)-1H-pyrazole-4-carboxamide] | 0.026 | 0.015 | 11.2 | 0.432 | 0.029 | – | –
5 | Cn1c(=O)cc(-n2ncc(C(=O)Nc3cnc(-n4nccn4)c(Cl)c3)c2C(F)(F)F)c2ccccc21 [Cpd 419, N-(5-chloro-6-(2H-1,2,3-triazol-2-yl)pyridin-3-yl)-1-(1-methyl-2-oxo-1,2-dihydroquinolin-4-yl)-5-(trifluoromethyl)-1H-pyrazole-4-carboxamide] | – | 0.015 | 5.75 | 1.12 | 1.66 | – | –
6 | COC(=O)c1ccc(NC(=O)c2cnn(-c3cccc4ncccc34)c2C(F)(F)F)cc1C#N [Cpd 313, methyl 2-cyano-4-(1-(quinolin-5-yl)-5-(trifluoromethyl)-1H-pyrazole-4-carboxamido)benzoate] | – | 0.043 | 7.94 | 0.939 | – | 4.17 | 7.24
7 | O=C(Nc1cnc(-n2nccn2)c(Cl)c1)c1cnn(-c2cc[n+]([O-])c3ccccc23)c1C(F)(F)F [Cpd 405, 4-(4-((5-chloro-6-(2H-1,2,3-triazol-2-yl)pyridin-3-yl)carbamoyl)-5-(trifluoromethyl)-1H-pyrazol-1-yl)quinoline 1-oxide] | – | 0.044 | 4.37 | 0.513 | – | 0.178 | 0.457
8 | O=C(Nc1cnc(-n2nccn2)c(Cl)c1)c1cnn(-c2c[nH]c(=O)c3c(F)cccc23)c1C(F)(F)F [Cpd 184, N-(5-chloro-6-(2H-1,2,3-triazol-2-yl)pyridin-3-yl)-1-(8-fluoro-1-oxo-1,2-dihydroisoquinolin-4-yl)-5-(trifluoromethyl)-1H-pyrazole-4-carboxamide] | – | 0.032 | 6.03 | 0.585 | – | 1 | 4.27
9 | Cc1nc(-n2nccn2)c(Cl)cc1NC(=O)c1cnn(-c2cncc3c(F)cccc23)c1C(F)(F)F [Cpd 123, N-(5-chloro-2-methyl-6-(2H-1,2,3-triazol-2-yl)pyridin-3-yl)-1-(8-fluoroisoquinolin-4-yl)-5-(trifluoromethyl)-1H-pyrazole-4-carboxamide] | – | 0.013 | 0.501 | 0.395 | – | 0.182 | 0.389
10 | O=C(Nc1cnc(-n2nccn2)c(Cl)c1)c1cnn(-c2ccc(F)c3nccn23)c1C(F)(F)F [Cpd 202, N-(5-chloro-6-(2H-1,2,3-triazol-2-yl)pyridin-3-yl)-1-(8-fluoroimidazo[1,2-a]pyridin-5-yl)-5-(trifluoromethyl)-1H-pyrazole-4-carboxamide] | – | 0.051 | 2.34 | 1.36 | – | 2.95 | 5.01
11 | Nc1cnn(-c2ncc(NC(=O)c3cnn(-c4cccc5c(=O)[nH]ccc45)c3C(F)(F)F)cc2Cl)n1 [Cpd 134, N-(6-(4-amino-2H-1,2,3-triazol-2-yl)-5-chloropyridin-3-yl)-1-(1-oxo-1,2-dihydroisoquinolin-5-yl)-5-(trifluoromethyl)-1H-pyrazole-4-carboxamide] | – | 0.02 | 20 | 1.01 | – | 0.046 | 0.058
12 | N#Cc1cc(NC(=O)c2cnn(-c3nccc4sccc34)c2C(F)(F)F)cnc1-n1nccn1 [Cpd 90, N-(5-cyano-6-(2H-1,2,3-triazol-2-yl)pyridin-3-yl)-1-(thieno[3,2-c]pyridin-4-yl)-5-(trifluoromethyl)-1H-pyrazole-4-carboxamide] | – | 0.021 | ~3.89 | 0.52 | – | 0.135 | 0.098
13 | O=C(Nc1cnc(-n2nccn2)c(Cl)c1)c1cnn(-c2nccn3nccc23)c1C(F)(F)F [Cpd 141, N-(5-chloro-6-(2H-1,2,3-triazol-2-yl)pyridin-3-yl)-1-(pyrazolo[1,5-a]pyrazin-4-yl)-5-(trifluoromethyl)-1H-pyrazole-4-carboxamide] | – | 0.025 | 6.03 | 0.505 | – | 0.039 | 0.051
14 | O=C(Nc1cnc(-n2nccn2)c(Cl)c1)c1cnn(-c2nccn3cccc23)c1C(F)(F)F [Cpd 147, N-(5-chloro-6-(2H-1,2,3-triazol-2-yl)pyridin-3-yl)-1-(pyrrolo[1,2-a]pyrazin-1-yl)-5-(trifluoromethyl)-1H-pyrazole-4-carboxamide] | – | 0.03 | 11.5 | 0.966 | – | 0.085 | 0.2
15 | O=C(Nc1cnc(-n2nccn2)c(Cl)c1)c1cnn(-c2cccc3nc(Cl)ccc23)c1C(F)(F)F [Cpd 221, N-(5-chloro-6-(2H-1,2,3-triazol-2-yl)pyridin-3-yl)-1-(2-chloroquinolin-5-yl)-5-(trifluoromethyl)-1H-pyrazole-4-carboxamide] | – | 2.04 | 2.57 | 0.912 | – | 0.331 | 0.331
16 | N#Cc1cc(NC(=O)c2cnn(-c3ccnc4ccccc34)c2C(F)(F)F)cnc1-n1nccn1 [Cpd 138, N-(5-cyano-6-(2H-1,2,3-triazol-2-yl)pyridin-3-yl)-1-(quinolin-4-yl)-5-(trifluoromethyl)-1H-pyrazole-4-carboxamide] | – | 0.023 | 2.51 | 0.447 | – | 0.126 | 0.245
17 | COCc1cnn(-c2ncc(NC(=O)c3cnn(-c4cccc5ncccc45)c3C(F)(F)F)cc2Cl)n1 [Cpd 173, N-(5-chloro-6-(4-(methoxymethyl)-2H-1,2,3-triazol-2-yl)pyridin-3-yl)-1-(quinolin-5-yl)-5-(trifluoromethyl)-1H-pyrazole-4-carboxamide] | – | 0.059 | 2.69 | 1.73 | – | 0.24 | 0.55
